Common to all, as to assay type: biochemical
The target in one assay is human cathepsin L (CatL) (Homo sapiens (Human), UniProt P07711). The assay is described as follows: CatL functional enzyme assay. To be noted: read-out: hCatL, inhibition [%] at 31.6 μM.
In the next assay the target is human cathepsin S (CatS) (Homo sapiens (Human), UniProt P25774). The assay is described as follows: CatS functional enzyme assay. The conditions noted are these: for Selectivity Ki(hCatS)/Ki(hCatK): ratio Ki(hCatS)/Ki(hCatK); for Ki: recombinant human CatS, substrate Z-VVR-AMC 5 μM, pH 6.5, Ki by Cheng Prusoff equation, read-out: hCatS, Ki. An outline of the steps: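 Recombinant human enzymes were incubated 10 min at RT with AMC substrate: CatS 0.0007 mU/well with Z-VVR-AMC 5 µM; CatK 0.00175 mU/well with Z-FR-AMC 40 µM; CatL 0.000874 mU/well with Z-VVR-AMC 40 µM. Fluorescence gave IC50, converted to Ki by Cheng-Prusoff.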
Chain of human cathepsin S (CatS) (P25774 115-331): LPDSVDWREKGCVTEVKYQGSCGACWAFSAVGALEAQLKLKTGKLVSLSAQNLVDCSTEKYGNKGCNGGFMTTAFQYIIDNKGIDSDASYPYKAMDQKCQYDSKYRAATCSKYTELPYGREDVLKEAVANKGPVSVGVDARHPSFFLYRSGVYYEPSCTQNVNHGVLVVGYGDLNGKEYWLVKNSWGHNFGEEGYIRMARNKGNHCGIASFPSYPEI

For the next assay, the target named is human cathepsin K (CatK) (Homo sapiens (Human), UniProt P43235). The assay is described as follows: CatK functional enzyme assay. To be noted: recombinant human CatK, substrate Z-FR-AMC 40 μM, pH 5.5; Ki by Cheng Prusoff equation; read-out: hCatK, Ki. The method in brief: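 Recombinant human enzymes in 50 mM NaOAc, 10 mM EDTA, 1 mM DTT, 0.01% Triton X-100, pH 5.5, 10 min at RT. CatK: 0.00175 mU/well with 40 μM Z-FR-AMC; CatL: 0.000874 mU/well with 40 μM Z-VVR-AMC. AMC fluorescence read; IC50 converted to Ki via Cheng–Prusoff.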
Chain of human cathepsin K (CatK) (P43235 115-329): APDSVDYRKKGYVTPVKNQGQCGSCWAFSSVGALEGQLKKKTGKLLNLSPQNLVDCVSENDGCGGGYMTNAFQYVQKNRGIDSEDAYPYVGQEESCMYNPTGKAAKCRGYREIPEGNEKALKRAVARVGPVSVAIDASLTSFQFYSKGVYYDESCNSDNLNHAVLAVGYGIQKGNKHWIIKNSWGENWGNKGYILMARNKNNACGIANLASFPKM

Chain of human cathepsin L (CatL) (P07711 114-333): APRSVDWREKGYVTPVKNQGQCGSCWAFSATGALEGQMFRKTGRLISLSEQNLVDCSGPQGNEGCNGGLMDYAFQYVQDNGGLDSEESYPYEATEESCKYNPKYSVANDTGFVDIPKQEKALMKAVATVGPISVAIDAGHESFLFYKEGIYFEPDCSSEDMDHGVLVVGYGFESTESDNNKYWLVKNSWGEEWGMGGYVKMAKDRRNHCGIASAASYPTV

Regarding `O=C(N[C@H](C(=O)N1C[C@H](Cl)[C@H]2OCC(=O)[C@H]21)C1CCCCC1)c1ncc(-c2ccncc2F)s1` [Example 50, N-((S)-2-((3aS,6S,6aS)-6-chloro-3-oxotetrahydro-2H-furo[3,2-b]pyrrol-4(5H)-yl)-1-cyclohexyl-2-oxoethyl)-5-(3-fluoropyridin-4-yl)thiazole-2-carboxamide], the inhibition (usually the percentage by which the read-out fell short of the control) at 31.6 µM on human cathepsin L (CatL) came to 15%. Moreover, on human cathepsin S (CatS), the “Selectivity Ki(hCatS)/Ki(hCatK)” value is given as 66.6 and the inhibition constant (Ki) – broadly, the equilibrium dissociation constant of an inhibitor or competing ligand from its target – was 733 nM. Further, the Ki on human cathepsin K (CatK) turned out to be 11 nM.

`Cc1cc(-c2cnc(C(=O)N[C@H](C(=O)N3C[C@H](Cl)[C@H]4OCC(=O)[C@H]43)C3CCCCC3)s2)ccn1` [Example 51, N-((S)-2-((3aS,6S,6aS)-6-chloro-3-oxotetrahydro-2H-furo[3,2-b]pyrrol-4(5H)-yl)-1-cyclohexyl-2-oxoethyl)-5-(2-methylpyridin-4-yl)thiazole-2-carboxamide]: the inhibition at 31.6 µM on human cathepsin L (CatL) was 6%. In addition, on human cathepsin S (CatS), the “Selectivity Ki(hCatS)/Ki(hCatK)” value was found to be 24.7. Besides, the Ki on human cathepsin S (CatS) stood at 173 nM; on human cathepsin K (CatK), 7 nM.

For the molecule `O=C(N[C@H](C(=O)N1C[C@H](Cl)[C@H]2OCC(=O)[C@H]21)C1CCCCC1)c1ncc(-c2ccc(Cl)nc2)s1` [Example 52, N-((S)-2-((3aS,6S,6aS)-6-chloro-3-oxotetrahydro-2H-furo[3,2-b]pyrrol-4(5H)-yl)-1-cyclohexyl-2-oxoethyl)-5-(6-chloropyridin-3-yl)thiazole-2-carboxamide], the inhibition at 31.6 µM at human cathepsin L (CatL) was determined as 7%. Besides, at human cathepsin S (CatS), the “Selectivity Ki(hCatS)/Ki(hCatK)” value was 14.5 and the inhibition constant (Ki) is 203 nM. Also, the Ki on human cathepsin K (CatK) worked out at 14 nM.

With `O=C(N[C@H](C(=O)N1C[C@H](Cl)[C@H]2OCC(=O)[C@H]21)C1CCCCC1)c1sc(-c2cncnc2)cc1F` [Example 53, N-((S)-2-((3aS,6S,6aS)-6-chloro-3-oxotetrahydro-2H-furo[3,2-b]pyrrol-4(5H)-yl)-1-cyclohexyl-2-oxoethyl)-3-fluoro-5-(pyrimidin-5-yl)thiophene-2-carboxamide], the inhibition at 31.6 µM on human cathepsin L (CatL) worked out at 40%. Moreover, at human cathepsin S (CatS), the “Selectivity Ki(hCatS)/Ki(hCatK)” value amounted to 8.9 and the Ki was determined as 302 nM. The inhibitory constant (Ki) on human cathepsin K (CatK) was found to be 34 nM.

Consider `O=C(N[C@H](C(=O)N1C[C@H](Cl)[C@H]2OCC(=O)[C@H]21)C1CCCCC1)c1cc(F)c(-c2cccnn2)s1` [Example 54, N-((S)-2-((3aS,6S,6aS)-6-chloro-3-oxotetrahydro-2H-furo[3,2-b]pyrrol-4(5H)-yl)-1-cyclohexyl-2-oxoethyl)-4-fluoro-5-(pyridazin-3-yl)thiophene-2-carboxamide], for which the inhibition at 31.6 µM at human cathepsin L (CatL) came to 27%. On human cathepsin S (CatS), the “Selectivity Ki(hCatS)/Ki(hCatK)” value worked out at 25.1. Moreover, the results for the Ki at human cathepsin S (CatS) and at human cathepsin K (CatK) were 528 nM and 21 nM, respectively.

On to `O=C(N[C@H](C(=O)N1C[C@H](Cl)[C@H]2OCC(=O)[C@H]21)C1CCCCC1)c1ccc(-c2cnc(C3CC3)nc2)s1` [Example 55, N-((S)-2-((3aS,6S,6aS)-6-chloro-3-oxotetrahydro-2H-furo[3,2-b]pyrrol-4(5H)-yl)-1-cyclohexyl-2-oxoethyl)-5-(2-cyclopropylpyrimidin-5-yl)thiophene-2-carboxamide], for which the inhibition at 31.6 µM on human cathepsin L (CatL) was determined as 13%. At human cathepsin S (CatS), the “Selectivity Ki(hCatS)/Ki(hCatK)” value is listed as 2.4 and the Ki is 70 nM. Also, the Ki at human cathepsin K (CatK) was 29 nM.

For the molecule `COc1cc(-c2ccc(C(=O)N[C@H](C(=O)N3C[C@H](Cl)[C@H]4OCC(=O)[C@H]43)C3CCCCC3)s2)ccn1` [Example 56, N-((S)-2-((3aS,6S,6aS)-6-chloro-3-oxotetrahydro-2H-furo[3,2-b]pyrrol-4(5H)-yl)-1-cyclohexyl-2-oxoethyl)-5-(2-methoxypyridin-4-yl)thiophene-2-carboxamide], the inhibition at 31.6 µM on human cathepsin L (CatL) stood at 20%. Further, at human cathepsin S (CatS), the “Selectivity Ki(hCatS)/Ki(hCatK)” value came out at 16.6 and the Ki was found to be 92 nM. In addition, the Ki at human cathepsin K (CatK) is 6 nM.

Turning to `O=C(N[C@H](C(=O)N1C[C@H](Cl)[C@H]2OCC(=O)[C@H]21)C1CCCCC1)c1ncc(-c2cnc(C3CC3)nc2)s1` [Example 57, N-((S)-2-((3aS,6S,6aS)-6-chloro-3-oxotetrahydro-2H-furo[3,2-b]pyrrol-4(5H)-yl)-1-cyclohexyl-2-oxoethyl)-5-(2-cyclopropylpyrimidin-5-yl)thiazole-2-carboxamide], the inhibition at 31.6 µM on human cathepsin L (CatL) was 23%. For the same molecule, on human cathepsin S (CatS), the “Selectivity Ki(hCatS)/Ki(hCatK)” value was determined as 3.6. Also, the Ki on human cathepsin S (CatS) was 150 nM; at human cathepsin K (CatK), 42 nM.

As for `Cc1nnccc1-c1ccc(C(=O)N[C@H](C(=O)N2C[C@H](Cl)[C@H]3OCC(=O)[C@H]32)C2CCCCC2)s1` [Example 58, N-((S)-2-((3aS,6S,6aS)-6-chloro-3-oxotetrahydro-2H-furo[3,2-b]pyrrol-4(5H)-yl)-1-cyclohexyl-2-oxoethyl)-5-(3-methylpyridazin-4-yl)thiophene-2-carboxamide], the inhibition at 31.6 µM on human cathepsin L (CatL) was found to be 21%. Further, at human cathepsin S (CatS), the “Selectivity Ki(hCatS)/Ki(hCatK)” value was 1.5 and the Ki worked out at 51 nM. Moreover, the inhibitory constant (Ki) at human cathepsin K (CatK) is 34 nM.

Consider `O=C(N[C@H](C(=O)N1C[C@H](Cl)[C@H]2OCC(=O)[C@H]21)C1CCCCC1)c1sc(-c2cccnn2)cc1F` [Example 59, N-((S)-2-((3aS,6S,6aS)-6-chloro-3-oxotetrahydro-2H-furo[3,2-b]pyrrol-4(5H)-yl)-1-cyclohexyl-2-oxoethyl)-3-fluoro-5-(pyridazin-3-yl)thiophene-2-carboxamide], for which, at human cathepsin L (CatL), the inhibition at 31.6 µM was 0%. In addition, the “Selectivity Ki(hCatS)/Ki(hCatK)” value on human cathepsin S (CatS) is 6.2. Also, the Ki at human cathepsin S (CatS) was 726 nM; on human cathepsin K (CatK) it was 118 nM.

`O=C(N[C@H](C(=O)N1C[C@H](Cl)[C@H]2OCC(=O)[C@H]21)C1CCCCC1)c1sc(-c2ccnnc2)cc1F` [Example 60, N-((S)-2-((3aS,6S,6aS)-6-chloro-3-oxotetrahydro-2H-furo[3,2-b]pyrrol-4(5H)-yl)-1-cyclohexyl-2-oxoethyl)-3-fluoro-5-(pyridazin-4-yl)thiophene-2-carboxamide]: on human cathepsin L (CatL), the inhibition at 31.6 µM was found to be 11%. Further, at human cathepsin S (CatS), the “Selectivity Ki(hCatS)/Ki(hCatK)” value is given as 2.3 and the Ki was found to be 238 nM. Further, the Ki on human cathepsin K (CatK) came to 104 nM.

`O=C(N[C@H](C(=O)N1C[C@H](Cl)[C@H]2OCC(=O)[C@H]21)C1CCCCC1)c1ccc(-c2cnc(C(F)(F)F)nc2)s1` [Example 61, N-((S)-2-((3aS,6S,6aS)-6-chloro-3-oxotetrahydro-2H-furo[3,2-b]pyrrol-4(5H)-yl)-1-cyclohexyl-2-oxoethyl)-5-(2-(trifluoromethyl)pyrimidin-5-yl)thiophene-2-carboxamide]: the inhibition at 31.6 µM on human cathepsin L (CatL) is 0%. For the same molecule, on human cathepsin S (CatS), the “Selectivity Ki(hCatS)/Ki(hCatK)” value came out at 4.0 and the Ki is 302 nM. For the same molecule, the Ki at human cathepsin K (CatK) was 76 nM.

`O=C(N[C@H](C(=O)N1C[C@H](Cl)[C@H]2OCC(=O)[C@H]21)C1CCCCC1)c1ccc(-c2ccc(C(F)(F)F)nc2)s1` [Example 62, N-((S)-2-((3aS,6S,6aS)-6-chloro-3-oxotetrahydro-2H-furo[3,2-b]pyrrol-4(5H)-yl)-1-cyclohexyl-2-oxoethyl)-5-(6-(trifluoromethyl)pyridin-3-yl)thiophene-2-carboxamide]: the inhibition at 31.6 µM at human cathepsin L (CatL) is 25%. At human cathepsin S (CatS), the “Selectivity Ki(hCatS)/Ki(hCatK)” value came out at 10.0 and the Ki came out at 580 nM. For the same molecule, the Ki on human cathepsin K (CatK) was 58 nM.

Take `O=C(N[C@H](C(=O)N1C[C@H](Cl)[C@H]2OCC(=O)[C@H]21)C1CCCCC1)c1ccc(-c2ccc(C3CC3)nc2)s1` [Example 63, N-((S)-2-((3aS,6S,6aS)-6-chloro-3-oxotetrahydro-2H-furo[3,2-b]pyrrol-4(5H)-yl)-1-cyclohexyl-2-oxoethyl)-5-(6-cyclopropylpyridin-3-yl)thiophene-2-carboxamide]: the inhibition at 31.6 µM at human cathepsin L (CatL) was determined as 1%. Besides, on human cathepsin S (CatS), the “Selectivity Ki(hCatS)/Ki(hCatK)” value was determined as 27.6 and the Ki was determined as 525 nM. Moreover, the Ki on human cathepsin K (CatK) is 19 nM.

On to `O=C(N[C@H](C(=O)N1C[C@H](Cl)[C@H]2OCC(=O)[C@H]21)C1CCCCC1)c1ncc(-c2ccc(C3CC3)nc2)s1` [Example 64, N-((S)-2-((3aS,6S,6aS)-6-chloro-3-oxotetrahydro-2H-furo[3,2-b]pyrrol-4(5H)-yl)-1-cyclohexyl-2-oxoethyl)-5-(6-cyclopropylpyridin-3-yl)thiazole-2-carboxamide], for which the inhibition at 31.6 µM on human cathepsin L (CatL) came to 5%. Also, on human cathepsin S (CatS), the “Selectivity Ki(hCatS)/Ki(hCatK)” value is recorded as 21.3 and the inhibitory constant (Ki) came out at 616 nM. For the same molecule, the inhibition constant (Ki) on human cathepsin K (CatK) amounted to 29 nM.

On to `O=C(N[C@H](C(=O)N1C[C@H](Cl)[C@H]2OCC(=O)[C@H]21)C1CCCCC1)c1sc(-c2cccnc2)cc1F` [Example 65, N-((S)-2-((3aS,6S,6aS)-6-chloro-3-oxotetrahydro-2H-furo[3,2-b]pyrrol-4(5H)-yl)-1-cyclohexyl-2-oxoethyl)-3-fluoro-5-(pyridin-3-yl)thiophene-2-carboxamide], for which the inhibition at 31.6 µM at human cathepsin L (CatL) is 5%. At human cathepsin S (CatS), the “Selectivity Ki(hCatS)/Ki(hCatK)” value is recorded as 1.2 and the inhibition constant (Ki) stood at 646 nM. Besides, the Ki at human cathepsin K (CatK) amounted to 551 nM.

Values taken from patent US9725459B2, “3-oxo-tetrahydro-furo[3,2-B]pyrrol-4(5H)-yl) derivatives I” (GRÜNENTHAL GMBH, priority 2014, dated 2017).
